Test results published in patent US8653132B2, “Phosphaplatins and their use in pharmaceutical compositions” (Ohio University, priority 2007, dated 2014).
“Also recorded” adds a separate entry of the source.

Tests used:
[1] = tested on: A2780 human ovarian cancer cells; assay: Clonogenic assay, A2780; type: cell-based; conditions: 1 hour drug treatment, 1 week colony formation, read-out: IC50 A780
Method: (§1) Human ovarian cancer cells, A2780, were obtained from Dr. Thomas Hamilton (Fox Chase Cancer Center, Philadelphia, Pa.). Cells were cultured on monolayer using RPMI 1640 supplemented with 10% fetal bovine serum, 2 mM glutamine, 0.25 units/mL insulin and penicillin/streptomycin in a 37 degrees C. incubator continuously gassed with 5% CO2. Cells were subcultured using 0.0625% trypsin in HBSS to maintain cells in exponential growth.
(§2) IC50 values were determined using a clonogenic assay. Briefly, 500 A2780 cells from a single cell suspension were plated onto 60mm Petri plates 24 hours before drug treatment to permit cell attachment. On the day of drug treatment, the medium was decanted and replaced with the drug and these treated cells were placed back into the 37 degrees C. incubator for 1 hour. Triplicate plates were set up for each drug concentration. After the 1 hour drug treatment, the drug containing medium was decanted and replaced with fresh medium. These plates were returned to the 37 degrees C. incubator for 1 week for colony formation. Colonies were fixed and stained using 2% crystal violet in absolute methanol. Colonies containing more than 50 cells were scored. The number of scored colonies from the triplicate plates was averaged and this number was divided by the number of cells plated to obtain a value for the fraction of cells forming colonies. These values for fraction of cells forming colonies were then corrected for plating efficiency by dividing it by the number of cells forming colonies in plates that were not treated with drug.

[2] = tested on: A2780/C30 cisplatin-resistant ovarian cell line; assay: Clonogenic assay, cisplatin/carboplatin-resistant C30; type: cell-based, human; conditions: 1 hour drug treatment, 1 week colony formation
Method: as §1, with “A cisplatin-resistant Ovarian cell line (C30) (Hamaguchi, et al., 1993),” for “Human ovarian cancer cells, A2780, were”, “Pa.), was treated with the monomeric platinum complexes of the present invention (shown in FIG. 2). This cell line is also cross resistant to carboplatin.” for “Pa.).”, “0.025%” for “0.0625%”
as §2, with “500 C30” for “500 A2780”, “onto 60 mm” for “onto 60mm”, “the one” for “the 1”, “dividing them” for “dividing it”

CHO cell line = assay: Cytotoxic assay, CHO; type: cell-based
From the text: In some embodiments, the complexes of the present invention are useful for treating various cancers. […] The complexes of the present invention are particularly desirable because they may have reduced toxicity in vivo.

A2780 cells = assay: Cellular accumulation of platinum by atomic absorption, A2780; type: cell-based, human; conditions: for Cellular accumulation of platinum: 1 hr exposure
Method: (§3) Platinum content was quantitatively estimated on a Graphite Furnace Atomic Absorption Spectrometer (Perkin Elmer AA-600) from calibration curves established by using cisplatin or pyrodach-2 in water. Cells (5×10^6) were seeded in T75 cm^2 flasks. After 24 h, these cells were then treated with the different concentrations (0, 10, 20, 30 and 50 μM) of cisplatin and pyrodach-2. After 1 hr exposure with the platinum complexes, the drug-containing medium was removed and the cells were washed with ice-cold phosphate-buffered saline (PBS). The cells were then trypsinized and centrifuged into a pellet. Cell pellets were digested in concentrated HNO3 and H2O2 prior to analysis, according to the method of McGahan. Data reported in Table 4 were collected from three independent experiments each was carried out in duplicate. For the cisplatin accumulation, data were obtained from triplicate runs from a single sample at a given concentration.

A2780/C30 cells [3] = assay: Cellular accumulation of platinum by atomic absorption, A2780/C30; type: cell-based, human; conditions: 1 hr exposure
Method: as §3

guanine base = assay: Guanine base binding by proton NMR; conditions: cisplatin after 48 hours, am-2 96 hours, dach-2 106 hours
Method: FIG. 12 is a comparison of guanine base binding (the predominant DNA binding site of cisplatin) among cisplatin (bottom), am-2 (middle), and dach-2 (top) by proton NMR spectroscopy. […] The bottom spectrum was recorded after 48 hours. The middle and top spectra were recorded after 96 and 106 hours, respectively.
(§4) Proton NMR spectroscopic experiments were conducted on a Bruker 500 MHz NMR instrument in 99% (atom) D2O with a water suppression pulse sequence. Samples contained cisplatin (2.0 mM) or pyrodach-2 (2.0 mM) and nucleotides (5′-dGMP, 5′-dAMP, dGpG (5.0 mM)), and, single- and double stranded DNA (calf thymus, 5.0 mM) at pH 7.0 maintained by phosphate and carbonate buffers (10-20 mM). Reactions of cisplatin (0.25 mM) and pyrodach-2 (0.25 mM) with a synthetic 25-mer: 5′-[…]-3′ (SEQ ID NO: 1) (0.25 mM) were also performed under identical conditions. Reactions were carried out up to 7 days, and ^1H and ^31P NMR spectra were recorded at regular time intervals. Usually, a pulse width of 5 μs with a 1.0 s repetition delay was used for the measurements. Typically, a sweepwidth of 10,000 Hz and 32 K data points were selected to collect the Free Induction Decays. A line broadening factor of 1 Hz was for applied Fourier transformation. The chemical shifts, with reference to H—O-D peak, are at 4.67 ppm.

[4] = tested on: synthetic 25-mer oligonucleotide (SEQ ID NO:1); assay: Platinum-DNA binding by NMR, 25-mer oligonucleotide; conditions: 1H NMR, identical conditions for both complexes
Method: (§5) In the associated experiment, dach-2 was allowed to react with double-stranded calf-thymus DNA, a synthetic oligonucleotide (5′-[…]-3′; SEQ ID NO:1), a dinucleotide (dGpG), and nucleotide monophosphates (5′-dGMP and 5′-dAMP) at concentrations as much as 250-times higher than those of cellular doses. The extent of DNA binding was monitored by ^1H NMR spectroscopy. In parallel, similar reactions with cisplatin were conducted under identical conditions.
as §4, with “The chemical shifts, with reference to H—O-D peak, are at 4.67 ppm.” left out

[5] = tested on: calf-thymus DNA, oligonucleotide, dGpG, 5'-dGMP and 5'-dAMP; assay: Platinum binding to DNA and nucleotides by NMR; conditions: 1H NMR, up to seven days
Method: as §5
as §4, with “The chemical shifts, with reference to H—O-D peak, are at 4.67 ppm.” left out

fas = assay: Apoptotic gene array, real-time PCR: fas; type: cell-based; conditions: preliminary
Method: (§6) Preliminary gene expression experiments involving complexes of the present invention as compared to cisplatin (data not shown) were carried out with an apoptotic array containing 84 genes that includes the BCL2 superfamily, both pro- and anti-apoptotic, caspases, the BIR-family, TNF receptor […] factors, p53 and its congeners, and fas associated members by real-time PCR. A closer look at the two sets of gene expressions clearly indicates a number of differences in the expression patterns. […] Specifically, fas was over-expressed by 6-fold compared to the control, and TNFRS genes such as TNFRSF-10B was overexpressed by 2-3 folds over controls. These latter receptor factors belong to the fas superfamily.

BAK1 = assay: Apoptotic gene array, real-time PCR: BAK1; type: cell-based; conditions: preliminary
Method: as §6

BAX = assay: Apoptotic gene array, real-time PCR: BAX; type: cell-based; conditions: preliminary
Method: as §6

[6] = tested on: UMSCC10b (Cisplatin-sensitive) cells; conditions: from Zheng et al., Clinical Cancer Research 1997; cited from earlier work
A2780/C30 cells [7] = assay: Cellular accumulation of platinum by atomic absorption, A2780/C30; type: cell-based, human; conditions: at its IC50 value
[8] = pKa from 31P chemical shift as a function of pH; type: physicochemical; conditions: for pKa1 / pKa2: calculated from phosphorus-31 chemical shifts

Row | SMILES | IC50 [1] | IC50 [2] | IC50 (CHO cell line) | pKa1 [8] | pKa2 [8] | other results
1 | N.N.[Cl][Pt][Cl] [Cisplatin, cisdiamminedichloroplatinum(II), reference compound] | 7.5 ± 1.5 µM | 110 ± 11.3 µM | 29 ± 3 µM |  |  | Cellular accumulation of platinum (A2780 cells; A2780, 10 μM): 3.00 ± 0.05 ng/10^6 cells; Cellular accumulation of platinum (A2780 cells; A2780, 20 μM): 5.00 ± 0.06 ng/10^6 cells; Cellular accumulation of platinum (A2780 cells; A2780, 30 μM): 6.00 ± 0.10 ng/10^6 cells; Cellular accumulation of platinum (A2780 cells; A2780, 50 μM): 20.00 ± 1.00 ng/10^6 cells; accumulation in A2780 cells (A2780 cells; at 10 μM concentration): 3.0 ng Pt/10^6 cells; Cellular accumulation of platinum (A2780/C30 cells [3]; A2780/C30, 10 μM): 1.00 ± 0.10 ng/10^6 cells; Cellular accumulation of platinum (A2780/C30 cells [3]; A2780/C30, 20 μM): 2.00 ± 0.40 ng/10^6 cells; Cellular accumulation of platinum (A2780/C30 cells [3]; A2780/C30, 30 μM): 2.00 ± 0.50 ng/10^6 cells; Cellular accumulation of platinum (A2780/C30 cells [3]; A2780/C30, 50 μM): 5.00 ± 1.00 ng/10^6 cells; guanine base binding (H8 signal) (guanine base): additional signal at 8.43 ppm for H8 proton due to guanine binding to cisplatin; DNA binding, 25-mer oligonucleotide [4]: readily forms covalent adducts with DNA; adduct formation with nucleotides [5]: readily formed adducts with all the nucleotides; fas over-expression compared to the control (fas): no significant over-expression; also recorded: marginal changes; BAK1 overexpression (BAK1): did not make significant changes; BAX overexpression (BAX): did not make significant changes; IC50 [6]: 17 µM; platinum accumulation in the resistant cell lines (A2780/C30 cells [7]): > 5 ng Pt/10^6 cells
2 | NC1CCCCC1N.O=P([O-])(O)OP(=O)([O-])O.[OH-].[OH-].[Pt+4] [dach-4, (Trans-1,2-cyclohexanediamine)-trans-dihyroxo(dihydrogenpyrophosphato)platinum(IV)] | 180 ± 15 µM | 155 ± 17 µM | 116 ± 17 µM |  |  | 
3 | NCCN.O=P([O-])(O)OP(=O)([O-])O.[Pt+2] [en-2, 1,2-Ethanediamine(dihydrogenpyrophosphato)platinum(II)] |  |  |  | 2.2 ± 0.1 | 4.4 ± 0.1 | 
4 | N.N.O=C([O-])C1(C(=O)[O-])CCC1.[Pt+2] [Carboplatin, diammine-1,1-dicarcarboxylatocyclobutane-platinum(II), reference compound] | 90 ± 13 µM | > 200 µM | > 200 µM |  |  | 
5 | NCCN.O=P([O-])(O)OP(=O)([O-])O.[OH-].[OH-].[Pt+4] [en-4, 1,2-Ethanediamine-trans-dihydroxo(dihydrogenpyrophosphato)platinum(IV)] | 170 ± 33 µM | > 200 µM | > 200 µM | <2 | 4.3 ± 0.1 | 
6 | N.N.O=P1(O)OP(=O)(O)[O][Pt]([OH])([OH])[O]1 [am-4, Cis-diammine-trans-dihydroxo(dihydrogen pyrophosphato)platinum (IV)] | 175 ± 22 µM | > 200 µM | > 200 µM | 2.0 ± 0.1 | 4.7 ± 0.1 | 
7 | N.N.O=P1(O)[O][Pt][O]P(=O)(O)O1 [am-2, Diammine(dihydrogen pyrophosphato)platinum(II)] | 100 ± 11 µM | > 200 µM | 120 ± 30 µM | 2.9 ± 0.3 | 4.7 ± 0.2 | pKa1 (value in parentheses) ([8]; second value printed in parentheses under pKa1, not explained): (3.8 ± 0.1); guanine base binding (H8 signal) (guanine base): only indicates the unbound guanine H8 signal but not platinum bound signal
